The IC50 is the concentration at which inhibition is half-maximal. By EC50 is commonly meant the concentration needed to bring the measured effect to its halfway point.

This is an account of results in US11440923B2, “Substituted macrocyclic indole derivatives” (Bayer Aktiengesellschaft, priority 2017, dated 2022).

Counter-ions that a name gives are not always drawn. Like-named read-outs stand apart in the source and are kept apart here.

One series addresses BCL-XL (Homo sapiens (Human), UniProt Q07817). The series can be described thus: Protein-protein interaction assay BCL-XL/Bad BH3 peptide (BCL-XL assay, TR-FRET). Format: binding. The conditions noted are these: read-out: BCL-XL Assay IC50 (median). Summed up: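 Human BCL-XL (aa 1-212, C-terminal His6, E. coli) at 1 nM end concentration, preincubated 10 min at 22 °C with compound (11 concentrations, 0.1 nM–20 μM, duplicates), then biotinylated Bad BH3 peptide (1 nM) added with anti-His-Eu cryptate/streptavidin-XL665. Incubation 1 h at 22 °C then overnight at 4 °C; TR-FRET 665/620 ratio, IC50 from 4-parameter fit.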
On the technique in general: TR-FRET usually uses a lanthanide donor and a delayed reading to cut background.

For series [1], the system named is SUDHL5 cells. Briefly: Induction of caspase-3/7 activity in SUDHL5 cells (Assay 4). Format: cell-based. Summed up:
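Caspase-3/7 activity measured in DLBCL lines after 3 h compound exposure at 37 °C, following overnight plating; Caspase-Glo 3/7 luminescence read after 1 h at 37 °C. Medium-only background subtracted, values normalized to mean of DMSO-treated cells.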

Series [2] has as its system SUDHL5 cells. The series can be described thus: Induction of cytotoxicity in SUDHL5 cells (Assay 6). Format: cell-based. The conditions noted are these: 5 h, CellTiter-Glo; read-out: Cytotox SUDHL5 IC50 (median). Summed up: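 Overnight seeding, 37 °C; 5 h compound exposure; CellTiter-Glo, 15 min RT shake; luminescence read. No-cell medium control.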
In general terms: Cellular ATP, detected with luciferase, serves as a proxy for viable cell number.

The next series deals with HMC-1-8 cells. The series can be described thus: Antiproliferation assay HMC-1-8 (Assay 7). Format: cell-based. Summed up:
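CTG luminescence readout; cells plated, overnight at 37 °C, then 72 h compound treatment. Time-zero plate read in parallel. IC50 from day 0 and DMSO-normalised signal.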

Chain of BCL-XL (Q07817 1-212): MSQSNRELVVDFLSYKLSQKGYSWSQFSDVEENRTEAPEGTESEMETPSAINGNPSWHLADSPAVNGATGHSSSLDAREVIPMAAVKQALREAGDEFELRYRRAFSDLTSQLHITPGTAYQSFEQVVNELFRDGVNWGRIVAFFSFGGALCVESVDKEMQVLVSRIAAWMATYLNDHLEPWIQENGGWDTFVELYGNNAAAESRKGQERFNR

`CCc1c2c(nn1C)C(CCC1CCOCC1)OCCCCn1c(C(=O)O)c(CCCOc3cccc4cc(F)ccc34)c3ccc(Cl)c-2c31` (single isomer, unassigned; enantiomer 2) [Example 62, (−)-4-chloro-3-ethyl-7-{3-[(6-fluoronaphthalen-1-yl)oxy]propyl}-2-methyl-15-[2-(oxan-4-yl)ethyl]-2,10,11,12,13,15-hexahydropyrazolo[4′,3′:9,10][1,6]oxazacycloundecino[8,7,6-hi]indole-8-carboxylic Acid (Enantiomer 2)]: the IC50 on BCL-XL is over 20 µM; in the series on SUDHL5 cells [2], 6.3 µM; with HMC-1-8 cells (72 h, CellTiter-Glo; read-out: Antiproli HMC-1-8 IC50 median), 21.9 µM. For the same compound, in the series on SUDHL5 cells [1] (caspase-3/7 induction, 3 h; read-out: Caspase SUDHL5 EC50 (median)), the EC50 turned out to be 4.2 µM.
`CCc1c2c(nn1C)C(CC(C)(C)O)OCCCCn1c(C(=O)O)c(CCCOc3cccc4cc(F)ccc34)c3ccc(Cl)c-2c31` (single isomer, unassigned; enantiomer 21) [Example 54, (−)-4-chloro-3-ethyl-7-{3-[(6-fluoronaphthalen-1-yl)oxy]propyl}-15-(2-hydroxy-2-methylpropyl)-2-methyl-2,10,11,12,13,15-hexahydropyrazolo[4′,3′:9,10][1,6]oxazacycloundecino[8,7,6-hi]indole-8-carboxylic Acid—N-ethylethanamine Salt (Enantiomer 21]: the IC50 is 14.3 µM at BCL-XL; 9.4 µM in the series on SUDHL5 cells [2]; 20.2 µM in the series with HMC-1-8 cells (read-out: Antiproli HMC-1-8 IC50 median; 72 h, CellTiter-Glo). Further, in the series with SUDHL5 cells [1] (read-out: Caspase SUDHL5 EC50 (median); caspase-3/7 induction, 3 h), the EC50 came to 6.5 µM.
